The values that follow come from patent US9290536B2, “C4 monomethyl triterpenoid derivatives and methods of use thereof” (Reata Pharmaceuticals, Inc., priority 2011, dated 2016).

One may read the IC50 as the midpoint of a concentration-inhibition curve.

Some results are limits rather than exact numbers.

The experiment deals with IFNγ-induced NO production in RAW264.7. Put plainly: Suppression of IFNγ-induced NO production in RAW264.7 mouse macrophages (Griess reagent, normalized to WST-1 cell viability). The following applies: RAW264.7 cells, 2 h pre-treatment with drug (0-200 nM), then IFNγ for 24 h. Format: cell-based. The method, then:
Nitric Oxide Production and Cell Viability. […] On the next day, cells were pre-treated with DMSO or drug (0-200 nM dose range) for 2 hours, and then treated with recombinant mouse IFNγ (R&D Systems) for 24 hours. Nitric Oxide concentration in media was determined using the Griess reagent system (Promega). Cell viability was determined using WST-1 reagent (Roche). IC50 values were determined based on the suppression of IFNγ induced Nitric Oxide production normalized to cell viability.
Background: Nitrite, measured by Griess reagent, commonly stands in for NO production.

Regarding `CCCCCCOC(=O)[C@]12CCC(C)(C)C[C@H]1[C@H]1C(=O)C=C3[C@@]4(C)C=C(C#N)C(=O)[C@@H](C)[C@@H]4CC[C@@]3(C)[C@]1(C)CC2` [TX63821], the IC50 was 53 nM. The figure for `C[C@@H]1C(=O)C(C#N)=C[C@]2(C)[C@H]3CC(=O)[C@@H]4[C@@H]5CC(C)(C)CC[C@]5(C(=O)O)CC[C@@]4(C)[C@]3(C)CC[C@@H]12` [TX63797] is 21 nM; for `C[C@@H]1C(=O)C(C#N)=C[C@]2(C)[C@H]3CC(=O)[C@@H]4[C@@H]5CC(C)(C)CC[C@]5(COC(=O)C(F)(F)F)CC[C@@]4(C)[C@]3(C)CC[C@@H]12` [TX63841] it is 4.5 nM; for `COC(=O)CC[C@]12CCC(C)(C)C[C@H]1[C@H]1C(=O)C=C3[C@@]4(C)C=C(C#N)C(=O)[C@@H](C)[C@@H]4CC[C@@]3(C)[C@]1(C)CC2` [TX63867] it is 1.3 nM. The figure for `CCCCNC(=O)[C@]12CCC(C)(C)C[C@H]1[C@H]1C(=O)C=C3[C@@]4(C)C=C(C#N)C(=O)[C@@H](C)[C@@H]4CC[C@@]3(C)[C@]1(C)CC2` [TX63877] is 1.3 nM; for `CC(=O)O[C@]12CCC(C)(C)C[C@H]1[C@H]1C(=O)C=C3[C@@]4(C)C=C(C#N)C(=O)[C@@H](C)[C@@H]4CC[C@@]3(C)[C@]1(C)CC2` [TX63928] it is 0.6 nM. For `CCNC(=O)[C@]12CCC(C)(C)C[C@H]1[C@H]1C(=O)C=C3[C@@]4(C)C=C(C#N)C(=O)C(C)=C4CC[C@@]3(C)[C@]1(C)CC2` [TX63597], the IC50 is greater than 25 nM. The figure for `CCNC(=O)[C@]12CCC(C)(C)C[C@H]1[C@H]1C(=O)C=C3[C@@]4(C)C=C(C#N)C(=O)[C@@H](C)[C@@H]4CC[C@@]3(C)[C@]1(C)CC2` [TX63521] is 1.1 nM; for `CCCCNC(=O)[C@]12CCC(C)(C)C[C@H]1[C@H]1C(=O)C[C@@H]3[C@@]4(C)C=C(C#N)C(=O)[C@@H](C)[C@@H]4CC[C@@]3(C)[C@]1(C)CC2` [TX63843] it is 10.9 nM. The figure for `C[C@@H]1C(=O)C(C#N)=C[C@]2(C)C3=CC(=O)[C@@H]4[C@@H]5CC(C)(C)CC[C@]5(C(=O)NNC=O)CC[C@@]4(C)[C@]3(C)CC[C@@H]12` [TX63785] is 20 nM; for `CCOC(=O)[C@]12CCC(C)(C)C[C@H]1[C@@]1(O)C(=O)C=C3[C@@]4(C)C=C(C#N)C(=O)[C@@H](C)[C@@H]4CC[C@@]3(C)[C@]1(C)CC2` [TX63901] it is 1.3 nM; for `COC(=O)[C@]12CCC(C)(C)C[C@H]1[C@@]1(O)C(=O)C=C3[C@@]4(C)C=C(C#N)C(=O)[C@@H](C)[C@@H]4CC[C@@]3(C)[C@]1(C)CC2` [TX63870] it is 1.1 nM. The figure for `C[C@@H]1C(=O)C(C#N)=C[C@]2(C)C3=CC(=O)[C@@H]4[C@@H]5CC(C)(C)CC[C@]5(C(=O)N5CCCC5)CC[C@@]4(C)[C@]3(C)CC[C@@H]12` [TX63823] is 0.8 nM. In the case of `C[C@@H]1C(=O)C(C#N)=C[C@]2(C)C3=CC(=O)[C@@H]4[C@@H]5CC(C)(C)CC[C@]5(NS(C)(=O)=O)CC[C@@]4(C)[C@]3(C)CC[C@@H]12` [TX63621], the IC50 came to 0.8 nM. The figure for `C[C@@H]1C(=O)C(C#N)=C[C@]2(C)C3=CC(=O)[C@@H]4[C@@H]5CC(C)(C)CC[C@]5(COC(=O)CN)CC[C@@]4(C)[C@]3(C)CC[C@@H]12` [TX63717] is 0.6 nM; for `C[C@@H]1C(=O)C(C#N)=C[C@]2(C)C3=CC(=O)[C@@H]4[C@@H]5CC(C)(C)CC[C@]5(CCC(=O)N5CCCC5)CC[C@@]4(C)[C@]3(C)CC[C@@H]12` [TX63893] it is 0.5 nM. The figure for `CONC(=O)[C@]12CCC(C)(C)C[C@H]1[C@H]1C(=O)C[C@@H]3[C@@]4(C)C=C(C#N)C(=O)[C@@H](C)[C@@H]4CC[C@@]3(C)[C@]1(C)CC2` [TX63815] is 9.6 nM; for `C[C@@H]1C(=O)C(C#N)=C[C@]2(C)C3=CC(=O)[C@@H]4[C@@H]5CC(C)(C)CC[C@]5(CCC(=O)O)CC[C@@]4(C)[C@]3(C)CC[C@@H]12` [TX63891] it is 1.3 nM.
